The assay addresses Potassium voltage-gated channel subfamily A member 5 (Homo sapiens, UniProt P22460). Briefly: Inhibition of human Kv1.5 channel expressed in mouse L929 cells.
Potassium voltage-gated channel subfamily A member 5, sequence (P22460 whole entry): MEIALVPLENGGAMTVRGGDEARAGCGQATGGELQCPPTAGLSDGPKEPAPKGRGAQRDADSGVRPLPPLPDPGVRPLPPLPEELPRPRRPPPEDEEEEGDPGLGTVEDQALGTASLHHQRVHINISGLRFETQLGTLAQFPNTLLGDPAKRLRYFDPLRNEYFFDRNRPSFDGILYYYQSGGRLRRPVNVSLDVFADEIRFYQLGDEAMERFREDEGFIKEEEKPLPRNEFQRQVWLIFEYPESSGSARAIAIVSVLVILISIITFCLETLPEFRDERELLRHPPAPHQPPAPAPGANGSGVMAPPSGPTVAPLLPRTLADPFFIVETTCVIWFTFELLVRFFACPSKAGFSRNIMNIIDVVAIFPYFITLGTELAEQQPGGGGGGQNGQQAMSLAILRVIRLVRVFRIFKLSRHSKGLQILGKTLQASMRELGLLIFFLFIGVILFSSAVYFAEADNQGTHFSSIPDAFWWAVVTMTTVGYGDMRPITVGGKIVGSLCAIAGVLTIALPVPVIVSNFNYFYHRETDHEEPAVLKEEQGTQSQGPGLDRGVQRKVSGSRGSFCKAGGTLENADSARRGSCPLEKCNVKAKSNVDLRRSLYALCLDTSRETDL
The IC50 is the concentration that inhibits the measured activity by half. A high value points to a need for much substance. In the case of `CC1=Nc2ccnn2C(c2ccc(Cl)c(Cl)c2)C1c1ncc(-c2ccccc2)o1` (centres undefined) [2-(7-(3,4-dichlorophenyl)-5-methyl-4,7-dihydropyrazolo[1,5-a]pyrimidin-6-yl)-5-phenyloxazole], the 50% inhibitory concentration (IC50) was over 1000 nM.

The compound `CC1=Nc2ccnn2C(c2ccc(Cl)c(Cl)c2)C1c1nc2cc(S(=O)(=O)Nc3ccccc3)ccc2n1C` (centres undefined) [2-(7-(3,4-dichlorophenyl)-5-methyl-4,7-dihydropyrazolo[1,5-a]pyrimidin-6-yl)-1-methyl-N-phenyl-1H-benzo[d]imidazole-5-sulfonamide] registered an IC50 of over 1000 nM.

Regarding `CC1=Nc2ccnn2C(c2ccc(Cl)c(Cl)c2)C1c1nc2cccc(F)c2n1C` (centres undefined) [7-(3,4-dichlorophenyl)-6-(7-fluoro-1-methyl-1H-benzo[d]imidazol-2-yl)-5-methyl-4,7-dihydropyrazolo[1,5-a]pyrimidine], the half-inhibitory concentration (IC50) came out at 150 nM.

`CC1=Nc2ccnn2C(c2ccc(Cl)c(Cl)c2)C1c1nc2c(C)cccc2[nH]1` (centres undefined) [7-(3,4-dichlorophenyl)-5-methyl-6-(7-methyl-1H-benzo[d]imidazol-2-yl)-4,7-dihydropyrazolo[1,5-a]pyrimidine] showed an IC50 of 150 nM.

Take `CC1=Nc2ccnn2C(c2ccc(Cl)c(Cl)c2)C1c1nnc(-c2ccccc2)o1` (centres undefined) [2-(7-(3,4-dichlorophenyl)-5-methyl-4,7-dihydropyrazolo[1,5-a]pyrimidin-6-yl)-5-phenyl-1,3,4-oxadiazole]: the IC50 is over 1000 nM.

As to `CCCCc1nnc(C2C(C)=Nc3ccnn3C2c2ccc(Cl)c(Cl)c2)o1` (centres undefined) [2-butyl-5-(7-(3,4-dichlorophenyl)-5-methyl-4,7-dihydropyrazolo[1,5-a]pyrimidin-6-yl)-1,3,4-oxadiazole], the IC50 was over 1000 nM.

For `CC(=O)Nc1ccc2c(c1)nc(C1C(C)=Nc3ccnn3C1c1ccc(Cl)c(Cl)c1)n2C` (centres undefined) [N-(2-(7-(3,4-dichlorophenyl)-5-methyl-4,7-dihydropyrazolo[1,5-a]pyrimidin-6-yl)-1-methyl-1H-benzo[d]imidazol-5-yl)acetamide], the IC50 is over 1000 nM.

In turn, `CC1=Nc2ccnn2C(c2ccc(Cl)c(Cl)c2)C1c1nc2cc(S(C)(=O)=O)ccc2n1C` (centres undefined) [7-(3,4-dichlorophenyl)-5-methyl-6-(1-methyl-5-(methylsulfonyl)-1H-benzo[d]imidazol-2-yl)-4,7-dihydropyrazolo[1,5-a]pyrimidine] yielded an IC50 of over 1000 nM.

`CC1=Nc2ccnn2C(c2ccc(Cl)c(Cl)c2)C1c1nc2cc(C)ccc2n1C` (centres undefined) [7-(3,4-dichlorophenyl)-6-(1,5-dimethyl-1H-benzo[d]imidazol-2-yl)-5-methyl-4,7-dihydropyrazolo[1,5-a]pyrimidine]: the IC50 is 200 nM.

(Values after BindingDB's records for doi:10.1016/j.bmcl.2009.07.083 (Bristol-Myers Squibb, 2009).)
